Assay results: patent US5883074A, “Potentiators of antibacterial agents” (priority 1995, dated 1999)

Legend:
MRSA [1] = test: Potentiation screening assay: methicillin MIC reduction in MRSA; format: cell-based, Staphylococcus aureus; conditions: 0, 5, and 10 μg/ml test compound
Description: After regrowth at 35° C. to an OD600 of 0.2-0.4 (1-2 hrs.), the cells are diluted 1/1000 in MHB. […] The plate is placed in a humidified 35° C. incubator for 5-24 hours, and cell growth or inhibition is read as turbidity (OD600). Two positive and one negative controls for growth are cells grown MHB, cells grown in MHB plus 20 μg/ml methicillin alone (without test compound), and uninoculated MHB respectively.
Compounds which meet the first two criteria for follow-up are evaluated in a standard microdilution assessment of the MIC with methicillin for MRSA. (see Lorian, Antibiotics in Laboratory Medicine, 3rd ed., pp. 72-75 (1991).) In order to be carried further, the MIC of methicillin preferably is reduced in the presence of the potentiator to at most twice the MIC of a susceptible strain for methicillin.
MICs for the compounds were determined in the presence of 0, 5, and 10 μg/ml of each compound. MRSA cells were grown in the presence of 0, 5, and 10 μg/ml test compound and concentrations of methicillin obtained from serial two-fold dilutions starting at 1024 μg/ml to 0.002 μg/ml (This range can be extended or refined as appropriate.) as follows: A fresh inoculum of MRSA cells was grown at 35° C. in Mueller-Hinton Broth (MHB) overnight and then diluted 1/50 in the same medium. After regrowth at 35° C. to an OD600 of 0.2-0.4 (1-2 hrs.), the cells were diluted 1/1000 in MHB. […] The plate was placed in a humidified 35° C. incubator for 24 hours, and cell growth or inhibition was read as turbidity (OD600).

MRSA strain MRSA76 = test: Methicillin potentiation (methicillin MIC reduction), FIG. 1; format: cell-based, Staphylococcus aureus; conditions: potentiator at 0, 5, and 10 μg/ml
Description: (§1) The methicillin MIC at 0, 5, and 10 μg/ml of the potentiating molecules is shown. The structures of the two potentiating molecules are also shown. These potentiators were identified by screening by the methods of Examples 1 and 2, and the MIC reduction evaluated by the method of Example 3.
(§2) Compounds which meet the first two criteria for follow-up are evaluated in a standard microdilution assessment of the MIC with methicillin for MRSA. (see Lorian, Antibiotics in Laboratory Medicine, 3rd ed., pp. 72-75 (1991).) In order to be carried further, the MIC of methicillin preferably is reduced in the presence of the potentiator to at most twice the MIC of a susceptible strain for methicillin. (However, that level of reduction is not essential, since in particular circumstances a potentiator which provides a lesser reduction in the MIC can be useful.) In cases where susceptibility breakpoints are not available or the organism is not resistant to the drug whose action is being potentiated, the MIC preferably must be reduced by several twofold dilutions. We describe herein two compounds identified as having methicillin potentiating activity. These two potentiators meet the first three desired pharmacologic criteria as described above: (1) Potentiation of an anti-bacterial agent, (2) Little or no inhibition of the target organisms when used alone, and (3) Ability to reduce the MIC of an antibacterial agent to less than or equal to two times the MIC of an equivalent bacterial strain susceptible to that agent.
(§3) MICs for the compounds were determined in the presence of 0, 5, and 10 μg/ml of each compound. MRSA cells were grown in the presence of 0, 5, and 10 μg/ml test compound and concentrations of methicillin obtained from serial two-fold dilutions starting at 1024 μg/ml to 0.002 μg/ml (This range can be extended or refined as appropriate.) as follows: A fresh inoculum of MRSA cells was grown at 35° C. in Mueller-Hinton Broth (MHB) overnight and then diluted 1/50 in the same medium. After regrowth at 35° C. to an OD600 of 0.2-0.4 (1-2 hrs.), the cells were diluted 1/1000 in MHB. In a microtiter plate, 50 μl of this diluted culture were combined with 50 μl MHB containing 0, 10, or 20 μg/ml test compound to give starting growth conditions of 5×10^5 cfu/ml in MHB, with 0, 5, or 10 μg/ml test compound. The plate was placed in a humidified 35° C. incubator for 24 hours, and cell growth or inhibition was read as turbidity (OD600).

MRSA strain Col [2] = test: as above; format: cell-based, Staphylococcus aureus; conditions: potentiator at 0, 5, and 10 μg/ml
Description: as §1, §2, §3

MRSA Col cells = test: Time-kill curve with methicillin; format: cell-based, Staphylococcus aureus
Description: FIG. 3a is a graph of the number of viable MRSA Col cells/ml versus growth time in hours as determined by the method of Example 4. The graph presents the time kill curve for the first potentiating compound from FIG. 1 at 10 μg/ml with methicillin at 20 μg/ml, and curves for controls (drug-free, methicillin only, and potentiator only). Viable cell counts for all controls were greater than 5×10^8 cells/ml at 24 hours, while the viable cell count for methicillin plus potentiator was approximately 5×10^3 cells/ml after 24 hours.
A standard time-kill method (see Eliopolous & Moellering, Ch. 13 in Antibiotics in Laboratory Medicine, 3rd ed., Lorian ed., at pp. 441-444) is used to characterize whether the potentiator-drug combination is bacteriostatic or bactericidal. As controls, normal growth of the pathogen (without drug or potentiator) and the effects of the drug alone and the potentiator alone are assessed using the same inoculum culture as is used in the combination time-kill test. Either bacteriostatic or bactericidal effect should be confirmed for the potentiators to progress to further testing.

MRSA [3] = test: Specificity: intrinsic antibacterial activity without antibacterial agent; format: cell-based, Staphylococcus aureus; conditions: test compound alone, without methicillin
Description: In order to ascertain that the test compound is not primarily responsible for inhibition of growth, MRSA cells are grown in the presence of 5 μg/ml test compound as follows: A fresh inoculum of MRSA cells is grown at 35° C. in Mueller-Hinton Broth (MHB) overnight and then diluted 1/50 in the same medium. After regrowth at 35° C. to an OD600 of 0.2-0.4 (1-2 hrs.), the cells are diluted 1/1000 in MHB. In a microtiter plate, 50 μl of this diluted culture is combined with 50 μl MHB containing 10 μg/ml test compound to give starting growth conditions of 5×10^5 cfu/ml in MHB, with 5 μg/ml test compound. The plate is placed in a humidified 35° C. incubator for 5-24 hours, and cell growth or inhibition is read as turbidity (OD600). To be carried forward to the next step of the potentiator screening assay, the test compound should have little or no intrinsic anti-staphylococcal activity (growth should be at least 75% of the growth of the positive control without methicillin, corrected for background), or that activity should be explicable without indicating the probability of human toxicity.

[4] = test system: methicillin sensitive strain Col8A; test: Methicillin MIC in methicillin sensitive strain with potentiator, FIG. 1; format: cell-based, Staphylococcus aureus; conditions: potentiator at 0, 5, and 10 μg/ml
Enterococcus faecium = test: Ampicillin potentiation screen; format: cell-based; conditions: highly ampicillin-resistant Enterococcus faecium, ampicillin alone
Description: The ampicillin potentiation screen is a high-throughput (96 well), whole cell assay in which compounds of unknown pharmacological activity are tested for their ability to induce an ampicillin-susceptible phenotype in highly ampicillin-resistant Enterococcus faecium (MIC of ampicillin>100μg/ml). These highly ampicillin-resistant bacteria are grown in the presence of ampicillin and various test compounds. The concentration of ampicillin used is well below the MIC for the resistant cells, but higher than the MIC for the isogeneic susceptible cells. Therefore, resistant cells can grow in the presence of the ampicillin without test compound, but the growth of susceptible cells is repressed. Growth is assessed after 5-24 hours by turbidity. Compounds are also tested for intrinsic antibacterial activity in the absence of ampicillin. Compounds which repress Enterococcus faecium growth when used together with ampicillin, which show no, or only a little, intrinsic antibacterial activity, are considered potentiators. […]
A fresh inoculum of E. faecium cells are grown at 35° C. in Brain-Heart Infusion Broth (BHI) overnight and then diluted 1/50 in the same medium. […] The plate is placed in a humidified 35° C. incubator for 24 hours, and cell growth or inhibition is read as turbidity (OD600). […]

MRSA strain Spain 195 = test: Imipenem potentiation (MIC reduction), FIG. 4; format: cell-based, Staphylococcus aureus; conditions: compound at 10 μg/ml
Description: (§4) FIG. 4 is a table showing the imipenem potentiation effect of the second compound from FIG. 1 at 10 μg/ml in 5 MRSA strains (Col, Col 2278, sa 038, Spain 356, and Spain 195).

MRSA strain Col [5] = test: Imipenem potentiation (MIC reduction), FIG. 4; format: cell-based, Staphylococcus aureus; conditions: compound at 10 μg/ml
Description: as §4

MRSA strain Col 2278 = test: Imipenem potentiation (MIC reduction), FIG. 4; format: cell-based, Staphylococcus aureus; conditions: compound at 10 μg/ml
Description: as §4

MRSA strain Col [6] = test: Potentiating effect for 17 antimicrobial agents (MIC reduction), FIG. 2; format: cell-based, Staphylococcus aureus
Description: FIG. 2 is a table showing the potentiating effect of one of the potentiating molecules from FIG. 1 for 17 antimicrobial agents in MRSA strain Col. The MIC is shown at 0, 5, and 10 μg/ml of potentiator.
as §3
The procedures used in Examples 1-3 to determine potentiation activity, and MIC reduction have been carried out using larixol acetate as the test compound and various antibacterial agents in place of methicillin. […]

effect on the MIC for methicillin (MRSA [1])	reduction of methicillin MIC (MRSA strain MRSA76)	reduction of methicillin MIC (MRSA strain Col [2])	reduction of methicillin MIC [4]	MIC (Enterococcus faecium)	imipenem MIC reduction (MRSA strain Spain 195)	imipenem MIC reduction (MRSA strain Col [5])	imipenem MIC reduction (MRSA strain Col 2278)	MIC reduction of antimicrobial agents (MRSA strain Col [6]; potentiator at 0, 5, and 10 μg/ml, range of β-lactams, including methicillin, cefazolin, and imipenem)	MIC with potentiator relative to MIC of the antibacterial agent in the absence of the potentiator (MRSA strain Col [6]; some β-lactams, larixol acetate as potentiator)	SMILES	viable cell count, methicillin plus potentiator (MRSA Col cells; potentiator 10 μg/ml with methicillin 20 μg/ml, after 24 hours)	viable cell count, potentiator only (control) (MRSA Col cells; potentiator only, at 24 hours)	intrinsic antimicrobial activity (MRSA [3])
reduce the MIC for methicillin	reducing the methicillin MIC	reducing the methicillin MIC	absence of a reduction in the MIC	–	–	–	–	–	–	COc1ccc2c(c1)CCC1C2CCC2CC(O)CCC21C (stereo not drawn) [HMM-dodecahydrochrysene, 2-hydroxy-8-methoxy-4a-methyl-1,2,3,4,4a,4b,5,6,10b,11,12,12a-dodecahydrochrysene]	approximately 5×10^3 cells/ml	greater than 5×10^8 cells/ml	not exhibiting intrinsic antimicrobial activity
–	–	–	–	> 100 µg/mL	–	–	–	–	–	CC1(C)S[C@@H]2[C@H](NC(=O)[C@H](N)c3ccccc3)C(=O)N2[C@H]1C(=O)O [ampicillin]	–	–	–
reduce the MIC for methicillin	reducing the methicillin MIC	reducing the methicillin MIC	absence of a reduction in the MIC	–	three orders of magnitude	three orders of magnitude	three orders of magnitude	Significant MIC reduction	less than 10^-3	C=CC(C)(O)CCC1C(=C)CC(OC(C)=O)C2C(C)(C)CCCC12C (stereo not drawn) [larixol acetate]	–	–	not exhibiting intrinsic antimicrobial activity
